≈ marks a conversion by molar mass, not a printed value. Read-outs that look alike come from different tables or passages of the source.
Tests used:
Assay type in all cases: cell-based
[1] = system: Proteus mir. 8223; assay: MIC, agar dilution test, Proteus mir. 8223; conditions: Proteus mirabilis
From the text: (§1) | Denley multipoint inoculator

[2] = system: Streptococc. faecal. 9790; assay: MIC, agar dilution test, Streptococc. faecal. 9790
From the text: as §1

[3] = system: Pseudomonas W.; assay: MIC, agar dilution test, Pseudomonas W.
From the text: as §1

[4] = system: Proteus morg. 932; assay: MIC, agar dilution test, Proteus morg. 932; conditions: Morganella morganii, Isosensitest medium
From the text: as §1

[5] = Proteus mir. 8223, agar dilution, Isosensitest medium, read-out: MIC
[6] = Streptococc. faecal. 9790, agar dilution, Isosensitest medium, read-out: MIC
[7] = Pseudomonas W., agar dilution, Isosensitest medium, read-out: MIC

| Compound | MIC [1, 5] [µg/mL] | MIC [2, 6] [µg/mL] | MIC [3, 7] [µg/mL] | MIC [4] [µg/mL] | MIC ([1]; MIR.8223) [µg/mL] | MIC [2] [µg/mL] | MIC ([3]; Pseudomonas) [µg/mL] |
| --- | --- | --- | --- | --- | --- | --- | --- |
| Cl.O=C(O)c1cn(C2CC2)c2c(F)c(N3CCNCC3)c(F)cc2c1=O [Example 1, 1-cyclopropyl-6,8-difluoro-7-(piperazin-1-yl)-1,4-dihydro-4-oxoquinoline-3-carboxylic acid hydrochloride] | – | – | – | – | 2000 | 250 | 60 |
| O=C(O)c1cn(C2CC2)c2c(F)c(N3CCOCC3)c(F)cc2c1=O [Example 7, 1-cyclopropyl-6,8-difluoro-7-(morpholin-4-yl)-1,4-dihydro-4-oxoquinoline-3-carboxylic acid] | 8000 (≈ 22800 µM) | 500 (≈ 1430 µM) | 1000 (≈ 2850 µM) | 60 (≈ 171 µM) | – | – | – |
| O=C(O)c1cn(C2CC2)c2c(F)c(N3CCC(O)CC3)c(F)cc2c1=O [Example 8] | 4000 (≈ 11000 µM) | – | 1000 (≈ 2740 µM) | 30 (≈ 82.3 µM) | – | – | – |
| CCN1CCN(c2c(F)cc3c(=O)c(C(=O)O)cn(C4CC4)c3c2F)CC1C (centres unmarked) [Example 14] | 16000 (≈ 40900 µM) | 1000 (≈ 2550 µM) | 4000 (≈ 10200 µM) | 30 (≈ 76.6 µM) | – | – | – |
| O=C(O)c1cn(C2CC2)c2c(F)c(N3CCCC3)c(F)cc2c1=O [Example 11] | 8000 (≈ 23900 µM) | 500 (≈ 1500 µM) | 4000 (≈ 12000 µM) | 500 (≈ 1500 µM) | – | – | – |
| O=C(O)c1cn(C2CC2)c2c(F)c(N3CCN(CC4CC4)CC3)c(F)cc2c1=O [Example 15, 1-cyclopropyl-7-(4-cyclopropylmethylpiperazin-1-yl)-6,8-difluoro-1,4-dihydro-4-oxoquinoline-3-carboxylic acid] | 8000 (≈ 19800 µM) | 2000 (≈ 4960 µM) | 8000 (≈ 19800 µM) | 60 (≈ 149 µM) | – | – | – |
| CCN1CCN(c2c(F)cc3c(=O)c(C(=O)O)cn(C4CC4)c3c2F)CC1 [Example 13] | 4000 (≈ 10600 µM) | 1000 (≈ 2650 µM) | 500 (≈ 1320 µM) | – | – | – | – |
| CCC1CN(c2c(F)cc3c(=O)c(C(=O)O)cn(C4CC4)c3c2F)CCN1 (centres unmarked) [Example 4] | 8000 (≈ 21200 µM) | 500 (≈ 1320 µM) | 1000 (≈ 2650 µM) | – | – | – | – |
| CC(C)N1CCN(c2c(F)cc3c(=O)c(C(=O)O)cn(C4CC4)c3c2F)CC1.I [Example 12, 1-cyclopropyl-6,8-difluoro-7-(4-isopropylpiperazin-1-yl)-1,4-dihydro-4-oxoquinoline-3-carboxylic acid hydriodide] | 16000 | 2000 | 8000 | 60 | – | – | – |

More lines, main results first:

| MIC [1, 5] [µg/mL] | MIC [2, 6] [µg/mL] | MIC [3, 7] [µg/mL] | MIC [4] [µg/mL] | Compound | MIC ([1]; MIR.8223) [µg/mL] | MIC [2] [µg/mL] | MIC ([3]; Pseudomonas) [µg/mL] |
| --- | --- | --- | --- | --- | --- | --- | --- |
| 4000 (≈ 10200 µM) | 500 (≈ 1270 µM) | 1000 (≈ 2540 µM) | – | O=C(O)c1cn(C2CC2)c2c(F)c(N3CCN(CCO)CC3)c(F)cc2c1=O [Example 6] | – | – | – |
| 4000 (≈ 11000 µM) | 500 (≈ 1380 µM) | 500 (≈ 1380 µM) | – | CC1CN(c2c(F)cc3c(=O)c(C(=O)O)cn(C4CC4)c3c2F)CCN1 (centres unmarked) [Example 3] | – | – | – |
| 2000 | 500 | – | – | CN1CCN(c2c(F)cc3c(=O)c(C(=O)O)cn(C4CC4)c3c2F)CC1.Cl [Example 2, 1-cyclopropyl-6,8-difluoro-7-(4-methylpiperazin-1-yl)-1,4-dihydro-4-oxoquinoline-3-carboxylic acid hydrochloride] | – | – | – |
| 8000 (≈ 21100 µM) | 250 (≈ 661 µM) | 4000 (≈ 10600 µM) | 1000 (≈ 2640 µM) | CC1CN(c2c(F)cc3c(=O)c(C(=O)O)cn(C4CC4)c3c2F)CC(C)O1 (centres unmarked) [Example 10] | – | – | – |
| 4000 (≈ 10600 µM) | 500 (≈ 1320 µM) | 1000 (≈ 2650 µM) | – | CC1CN(c2c(F)cc3c(=O)c(C(=O)O)cn(C4CC4)c3c2F)CC(C)N1 (centres unmarked) [Example 5] | – | – | – |
| 4000 (≈ 9540 µM) | 500 (≈ 1190 µM) | 250 (≈ 596 µM) | – | CC(=O)CCN1CCN(c2c(F)cc3c(=O)c(C(=O)O)cn(C4CC4)c3c2F)CC1 [Example 28, 1-cyclopropyl-6,8-difluoro-1,4-dihydro-4-oxo-7-[4-(3-oxobutyl)-piperazin-1-yl]-quinoline-3-carboxylic acid] | – | – | – |
